Assay results reported in article PMC4201327 (Organic letters, 2014).

Target: Egt1 (Neurospora crassa, UniProt Q7RX33)
Test: oxygen consumption, NeoFox oxygen electrode
Type: biochemical

Egt1, sequence (Q7RX33 whole entry): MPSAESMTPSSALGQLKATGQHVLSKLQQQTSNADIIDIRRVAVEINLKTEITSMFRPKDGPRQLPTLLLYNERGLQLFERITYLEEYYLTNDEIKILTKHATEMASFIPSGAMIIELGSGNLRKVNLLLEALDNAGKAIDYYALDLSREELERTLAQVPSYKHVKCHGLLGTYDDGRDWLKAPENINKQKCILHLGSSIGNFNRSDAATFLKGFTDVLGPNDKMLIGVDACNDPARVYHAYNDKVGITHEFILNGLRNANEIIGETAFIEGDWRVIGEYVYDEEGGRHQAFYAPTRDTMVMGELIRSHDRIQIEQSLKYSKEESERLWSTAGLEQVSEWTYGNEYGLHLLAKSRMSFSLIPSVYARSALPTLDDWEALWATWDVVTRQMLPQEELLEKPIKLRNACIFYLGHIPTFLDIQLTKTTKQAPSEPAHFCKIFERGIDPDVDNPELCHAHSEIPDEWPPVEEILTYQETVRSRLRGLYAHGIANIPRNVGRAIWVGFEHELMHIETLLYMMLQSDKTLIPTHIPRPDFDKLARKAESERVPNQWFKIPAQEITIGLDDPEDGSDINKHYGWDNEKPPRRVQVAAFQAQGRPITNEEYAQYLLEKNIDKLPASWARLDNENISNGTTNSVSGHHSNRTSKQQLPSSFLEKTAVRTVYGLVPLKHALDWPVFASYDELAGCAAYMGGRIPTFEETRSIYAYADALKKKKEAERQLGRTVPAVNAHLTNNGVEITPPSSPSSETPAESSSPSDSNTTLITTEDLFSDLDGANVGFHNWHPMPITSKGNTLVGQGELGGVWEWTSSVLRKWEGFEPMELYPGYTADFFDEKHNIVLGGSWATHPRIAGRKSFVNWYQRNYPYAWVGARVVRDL

Row | Km [mM] | SMILES
1 | 7.68 ± 1.11 | N[C@@H](CCC(=O)N[C@@H](CS)C(=O)O)C(=O)O [γ-Glu-Cys]
2 | 0.436 ± 0.03 | C[N+](C)(C)[C@@H](Cc1cnc[nH]1)C(=O)[O-] [compound 2, hercynine]
